Publication PMC6459484, “Synthetic surfactin analogues have improved anti-PEDV properties” (PLoS ONE, 2019)
In brackets after ≈: the same amount, converted by molar mass. Entries after “also recorded” stand apart in the source; their conditions may differ. Square brackets hold non-standard residues; d marks the D form. Peptide text beside a SMILES is read from it. * marks the point of attachment. X1 = CCCCCCCc1ccc(-c2ccc(C(=O)*)cc2)cc1; Palmitoyl = CCCCCCCCCCCCCCCC(=O)*

Assays:
PEDV = assay: Time of addition assay (viral N protein by western blot, viral RNA by qRT-PCR); format: cell-based, Porcine epidemic diarrhea virus; settings: Vero cells, 1000 PFU PEDV, harvested 12 hpi, SLP5 50 μg/ml, surfactin 20 μg/ml; for PEDV replication (nucleic acid and protein levels), reagent present throughout the experiment (treatment group 2) or at any stage: DEPE 5 μg/ml, 3 independent experiments
Protocol: Time of addition assay was performed according to the procedures described, with modifications. Confluent Vero cells in 12-well plates were infected with 1000 PFU of PEDV and incubated for 1 hr at 4 °C to synchronize infection. The inoculum was removed and 1 mL of 37 °C DMEM was added to each well, cells were then placed at 37 °C in a humidified incubator. At the indicated time points, SLP5, surfactin, or dielaidoyl-phosphatidylethanolamine (DEPE, AvantiPolarLipids, Alabaster, AL) was added dropwise to cells or virus to a final concentration of 50 μg/ml, 20 μg/ml, or 5 μg/ml and incubated a further 12 hours at 37 °C. Viral nucleic acid and protein levels in the cells were measured by qRT-PCR and western-blot respectively. The data shown is representative of 3 independent experiments.
Total RNA was extracted from cells using TRIzol Reagent (Invitrogen) according to the manufacturer’s instructions. cDNA was generated by reverse transcription using HiScript TM QRT SuperMix for qPCR (Vazyme) according to the manufacturer’s instructions. PEDV nucleic acid levels were assessed by measuring the viral nucleoprotein (N) using qRT-PCR with the TaKaRa SYBR Green qPCR Kit (TaKaRa). Primer sequences were as follows: PEDV-N-F (sense), 5’-[…]-3’; PEDV-N-R (antisense), 5’-[…]-3’; C-sabaeus-GAPDH-F, 5’-[…]-3’; C-sabaeus-GAPDH-R, 5’-[…]-3’. Gene level was calculated using the comparative Ct method and normalized to the endogenous levels of GAPDH.
Boiled cell lysates were subjected to SDS-PAGE then transferred to PVDF membrane (Roche, Basel, Switzerland) using a semi-dry transfer apparatus (GE, Little Chalfont, Buckinghamshire, UK). Membranes were blocked in 5% non-fat milk in TBS containing 0.01% Tween-20 (TBST) then incubated overnight at 4 °C with anti-PEDV N-protein monoclonal antibody (Median Diagnostics, South Korea) diluted in TBST with 1% BSA. Membranes were washed 30 min in TBST followed by incubation for 1 h at RT with 1:5000 HRP goat anti-mouse IgG antibody (ABGENT, San Diego, CA, USA) then thrice washed for 15 min in TBST. Membranes were incubated with ECL reagent (Thermo, Waltham, MA, USA) and imaged using a ChemiDoc™ system (Bio-Rad, Hercules, CA, USA).
Since SLP5 was the most promising surfactin analogue, we chose it for further study. Time of addition assays were performed to determine whether the SLP5 exerts its anti-PEDV effect at the same stage during infection as surfactin. Since surfactin acts directly on virions, the experiment was designed to examine events early in the infection process. Fig 6A summarizes the experimental plan and the eight treatments tested. Briefly, SLP5, surfactin, or DEPE was added to virus alone, cells alone, or to cells and virus together prior to infection, during virus adsorption, during virus invasion (1 h post infection at 37 °C), or during replication (1–12 hpi). Samples were harvested 12 hours after infection, and analyzed to measure cellular levels of viral protein (Fig 6B and 6C) and viral RNA (Fig 6D). […] Other antiviral mechanisms of SLP5 and surfactin cannot be ruled out since PEDV replication is inhibited to different degrees in some of the other treatment groups.
Fig 6 Time-of-addition experiments. (A) Vero cells were treated with SLP5, surfactin, or DEPE at different time points before, during, and after infection. […] (B) The PEDV nucleoprotein was detected by Western-blot, and (C) quantitated by band intensity relative to the internal control, GAPDH. (D) The PEDV genome was detected by qRT-PCR. […]

[1] = Critical micelle concentration by surface tension (ring method); format: physicochemical; settings: samples stood 30 min at 22 °C, intersection of two linear regression lines
Protocol: Surface tensions were measured using the ring method. Samples were freshly prepared in a testing flask and allowed to stand for 30 minutes at 22 °C. Surface tension measurements were made using a surface tensiometer (HLD-LST-II, HENLIDA Co., Ltd, China). Linear regressions of the drop and the flat area were performed separately for the surface tension-concentration curve. The concentration at the intersection of the two lines is the critical micelle concentration (CMC).
The CMC was calculated by measuring the surface tension of each SLP over a range of concentrations. […] Linear regressions were performed independently using the data on the descending part of the curve below the CMC and the equilibrium part above the CMC. The intersection of the linear regression lines corresponds to the CMC (Table 3).
Fig 4 Critical micelle concentrations of the SLPs. CMCs were determined for SDS, surfactin, and SLPs by surface tension. The intersection of the two linear regression lines corresponds to the CMC value, (shown by the dotted lines).

PEDV CV777 = assay: Plaque reduction assay (anti-PEDV activity); format: cell-based, Porcine epidemic diarrhea virus; settings: for Antiviral potency relative to SLP3: anti-PEDV plaque reduction, compared with SLP3; for Anti-PEDV potency compared with surfactin: plaque reduction assay, result in words
Protocol: Cercopithecus aethiops kidney epithelial cells (Vero, ATCC, CCL-81) were cultured in high glucose DMEM (Gibco, US), supplemented with 10% fetal bovine serum (FBS, GIBCO), at 37 °C in a 5% CO2 humidified atmosphere. Cells were routinely seeded at a density of 2×10^5 /mL in plastic tissue culture flasks (25 cm^2 flasks, Corning, USA) and passaged every 3–4 days. PEDV CV777 was provided by the Jiangsu Academy of Agricultural Sciences (JAAS).
Vero cells were seeded at 2 × 10^5 cells/well in 24-well tissue culture plates and incubated 18–24 h at 37 °C until approximately 95% confluency was reached. 100 PFU of PEDV mixed with an equal volume of SLP in DMEM or DMEM alone were incubated 10 minutes at 37 °C, then added into the wells of the Vero cells and incubated 30 minutes at 4 °C. Cells were washed 3 times with DMEM then overlaid with DMEM/1% agar and incubated 72 hours at 37 °C. The cells were fixed with 4% formaldehyde, then stained with 0.1% crystal violet after the agar overlay was removed. The data are representative of 3 biological replicates and each plaque assay was performed in triplicate and values are expressed as means ± the standard deviation. Curve fitting and EC50 were calculated with GraphPad Prism 6 using the log[inhibitor] vs. response equation.
The SLPs were tested for anti-PEDV activity using a plaque reduction assay. Serial dilutions of SLPs were incubated with an equal volume of PEDV then aliquoted onto precooled cells in 12-well plates. After the virus has adsorbed to the cells at 4 °C, SLPs were washed away. The adsorbed virus particles were then counted by plaque forming assays (Fig 2A). The results were fitted to a sigmoid-curve and plotted Fig 2B. All SLPs have potent anti-PEDV effects above 50 μg/ml, but differences in their anti-PEDV effect.
Fig 2 Anti-PEDV activities of lipopeptides. (A) PEDV was incubated with series concentrations of SLPs for 10 minutes at 37 °C. After washing cells of unadsorbed virus, the remaining infectious particles was detected by plaque assay. (B) Anti-PEDV activity (% remaining PFU) plotted as a function of lipopeptide concentration. The results of three independent experiments are shown as means ± standard deviation. 100% represents plaque counts in the control (no lipopeptide) sample.

porcine RBCs = format: cell-based; settings: for CC50 (50% cytotoxicity concentration, hemolysis): red cells of porcine, 1 h
Protocol: Hemolytic activity was measured according to the methods described in Jingdan, with some modifications. Briefly, serial dilutions of SLPs were added to 200 uL of a 1% suspension of porcine RBCs in PBS, followed by incubation for 1 h at 37 °C. Cells were centrifuged at 1000 g for 10 min, then 100 uL of each supernatant was transferred to wells of a 96-well plate. The optical density at 540 nm was measured using a microplate reader (Infinite 200 PRO, Tecan Group Ltd., Switzerland) and % hemolysis was calculated using the formula: Hemolysis(%)=ODS-ODB/ODP-ODB×100% where ODS, ODB, and ODP represent the optical density of the SLP-treated samples, negative control and positive control, respectively. 1% Triton X-100 was used for the positive control. Each sample was run in triplicate.
Fig 3 Hemolytic activity of lipopeptides. (A) The indicated concentration of SLPs were added to a 1% porcine RBC suspension in PBS, followed by incubation for 1 h at 37 °C and centrifugation. Pictures were taken after collecting a portion of the supernatant for quantification of hemolysis. (B) Hemolytic curve. Hemolysis (measured at OD540) is shown as a function of SLP concentration. 100% represents the OD obtained using 0.1% Triton X-100-treated red blood cells.

[2] = 100 PFU PEDV pre-incubated with lipopeptide 10 min at 37 °C, adsorbed to Vero cells 30 min at 4 °C, washed, agar overlay 72 h, 3 biological replicates each in triplicate, mean ± SD, log[inhibitor] vs. response fit

Compound	PEDV replication (nucleic acid and protein levels), reagent present throughout the experiment (treatment group 2) or at any stage (PEDV)	CMC [1]	EC50 (PEDV CV777; 72 h)	Antiviral potency relative to SLP3 (PEDV CV777)	Anti-PEDV potency compared with surfactin (PEDV CV777)	CC50 (50% cytotoxicity concentration, hemolysis) (porcine RBCs)	PEDV replication, treatment group 5 (PEDV; same as group 2 (little replication))	Hemolytic activity, result in words (porcine RBCs)	EC50 (PEDV CV777; [2])
CCCCCCCC/C=C/CCCCCCCC(=O)OC[C@H](COP(=O)(O)OCCN)OC(=O)CCCCCCC/C=C/CCCCCCCC [DEPE, dielaidoyl-phosphatidylethanolamine]	did not affect PEDV replication at any stage								
CCCCCCCCCCCCOS(=O)(=O)[O-].[Na+] [SDS, reference compound]		296 µg/mL							
CCCCCCCCCCCCCCCC(=O)N[C@@H](CCC(=O)O)C(=O)N[C@H](C(=O)N[C@H](CC(C)C)C(=O)N[C@H](CC(C)C)C(N)=O)C(C)C [SLP4] (Palmitoyl-EV[dL][dL]-NH2)		10.6 µg/mL	5.4 ± 0.4 µg/mL (≈ 7.61 µM)	about 3 fold	higher potency than surfactin	12.9 ± 0.2 µg/mL (≈ 18.2 µM)			
CCCCCCCCCCCCCCCC(=O)N[C@@H](CCC(=O)O)C(=O)N[C@H](C(=O)N[C@H](CC(C)C)C(=O)N[C@@H](CC(=O)O)C(=O)N[C@H](CC(C)C)C(=O)O)C(C)C [SLP5] (Palmitoyl-EV[dL]D[dL]-OH)	little PEDV replication occurs	15.0 µg/mL	16.5 ± 0.6 µg/mL (≈ 20 µM)		equaled	847.2 ± 124.9 µg/mL (≈ 1030 µM)	act directly on the virus		
CCCCCCCCCCCCCCCC(=O)N[C@@H](CCCCN)C(=O)N[C@H](C(=O)N[C@H](CC(C)C)C(=O)N[C@@H](CCCCN)C(=O)N[C@H](CC(C)C)C(N)=O)C(C)C [SLP6] (Palmitoyl-KV[dL]K[dL]-NH2)		22.4 µg/mL	6.1 ± 0.3 µg/mL (≈ 7.29 µM)		higher potency than surfactin	12.6 ± 0.4 µg/mL (≈ 15 µM)		strongest hemolytic activity	
CCCCCCCCCCCCCCCC(=O)N[C@@H](CCC(=O)O)C(=O)N[C@H](C(=O)N[C@@H](CC(C)C)C(=O)N[C@@H](CC(=O)O)C(=O)N[C@@H](CC(C)C)C(N)=O)C(C)C [SLP7] (Palmitoyl-EVLDL-NH2)		17.1 µg/mL				274.1 ± 21.0 µg/mL (≈ 332 µM)			14.0 ± 0.6 µg/mL (≈ 17 µM)
CCCCCCCCCCCCCCCC(=O)N[C@@H](CCC(=O)O)C(=O)N[C@H](C(=O)N[C@H](CC(C)C)C(=O)N[C@H](CC(C)C)C(=O)N[C@@H](CC(=O)O)C(N)=O)C(C)C [SLP8] (Palmitoyl-EV[dL][dL]D-NH2)		20.2 µg/mL	2.6 ± 0.2 µg/mL (≈ 3.15 µM)	6.5 fold	higher potency than surfactin; also recorded: exceeded	217.5 ± 18.9 µg/mL (≈ 264 µM)		low hemolytic activity	
CCCCCCCCCCCCCCCC(=O)N[C@@H](CCC(=O)O)C(=O)N[C@@H](CC(=O)O)C(=O)N[C@H](C(=O)N[C@H](CC(C)C)C(=O)N[C@H](CC(C)C)C(N)=O)C(C)C [SLP9] (Palmitoyl-EDV[dL][dL]-NH2)		9.4 µg/mL				52.2 ± 2.0 µg/mL (≈ 63.3 µM)			12.8 ± 0.5 µg/mL (≈ 15.5 µM)
CCCCCCCc1ccc(-c2ccc(C(=O)N[C@@H](CCC(=O)O)C(=O)N[C@H](C(=O)N[C@H](CC(C)C)C(=O)N[C@@H](CC(=O)O)C(=O)N[C@H](CC(C)C)C(N)=O)C(C)C)cc2)cc1 [SLP10] (X1-EV[dL]D[dL]-NH2)						82.8 ± 3.4 µg/mL (≈ 95.7 µM)			10.6 ± 0.5 µg/mL (≈ 12.3 µM)
